Measurements: patent US11311593B2, “Root extracts from plants of the Morus genus and uses of same” (PLANT ADVANCED TECHNOLOGIES PAT, priority 2017, dated 2022)
“Also recorded” adds a separate entry of the source.

What was measured:
[1] = test system: hyaluronidase; experiment: Target Binding affinity test for hyaluronidase; conditions: ligands in non-stimulated M. alba root extract; moracenin B = reference ligand
Description: A root extract of Morus Alba was prepared in accordance with the protocol described in Example 2.1. The Target Binding® method used was that of Example 2.3 which is described in patent application FR 1 670 545. The experimental protocol was as follows: The target, a 5 mg/mL solution of hyaluronidase, was prepared by dissolving powdered lyophilized enzyme in 50 mM sodium phosphate, with a pH of 7.0. The extract corresponded to the supernatant obtained in accordance with Example 2.1. It could optionally be centrifuged once again before use, at 21000 g for 15 min, in order to eliminate the solid particles before use. A reference sample was also prepared by diluting the sample 10-fold in a solution of water and a quarter of the volume of acetonitrile.
1. Preconditioning step—Wells with a filtering membrane were preconditioned with a volume of 500 μL of a solution of 50 mM sodium phosphate, at a pH of 7.0 which was passed through the membrane by centrifuging at 14000 g for 60 seconds.
2. Binding step—The hyaluronidase preparation (5 mg/mL) was mixed with 7.5 μL of the root extract for 5 min in a plastic Eppendorf tube.
3. Washing step—the mixture of the enzyme and the root extract was deposited in a well that had been preconditioned in the preconditioning step, then centrifuged at 14000 g until most of the solvent had been eliminated. The enzyme-ligand complexes remained on the surface of the membrane of the filter then were re-suspended in a volume of 100 μL of the same solution of 50 mM sodium phosphate at a pH of 7.0, and centrifuged at 14000 g until the solvent had been eliminated. This procedure was repeated three times and eliminated all of the compounds that were not bound to the enzyme. 4. Separation step—The enzyme-ligand complexes retained in the filter were re-suspended in a volume of 10 μL of ultra-pure water then mixed with a volume of 40 μL of acetonitrile in order to denature and precipitate the enzyme and at the same time to liberate the ligands. The mixture was centrifuged at 21000 g for 10 min in order to separate the precipitate from the supernatant. 5. Analysis step—Said supernatant was analyzed by liquid phase chromatography coupled to a mass spectrometer, also known by the acronym UPLC-MS. The reference sample was also analyzed in the same manner, using the same analytical conditions.
The UPLC-MS analysis was carried out in accordance with the protocol described in Example 1.

[2] = test system: fungal tyrosinase; experiment: Target Binding affinity test for tyrosinase (UPLC-MS of bound ligands); conditions: for Relative affinity (RA) for tyrosinase: ligands in non-stimulated M. alba root extract, moracenin B = reference ligand
Text: It is based on the principle of bringing the ligands and the target into contact in the liquid phase so that the ligands that have the greatest affinity with the target bind to it, elimination of the ligands that are not fixed, separation of the complexes in order to recover the ligands which have been fixed, then quantification of the latter. In a first step of the method, the extract and the target are mixed. The compounds of the extract compete for access to the binding sites of the target. The strongest compounds displace the weakest and are retained more effectively by the target. […] A reference sample was also prepared by diluting the sample to be analyzed 10-fold in a solution of water and a quarter of the volume of acetonitrile. […] Pre-conditioning step-Wells with a filtering membrane were pre-conditioned with a volume of 500 μL of an 85% solution of ammonium acetate and 15% of ethanol which was passed through the membrane by centrifuging at 14000 g for 60 seconds. 2. […] 3. Washing step-The mixture of the enzyme and the sample to be analyzed was deposited in a well that had been pre-conditioned in the pre-conditioning step, then centrifuged at 14000 g until most of the solvent had been eliminated. […] This procedure was repeated three times and eliminated all of the compounds that were not bound to the enzyme. 4. Separation step-The enzyme-ligand complexes retained in the filter were re-suspended in a volume of 10 μL of ultra-pure water, then mixed with a volume of 40 μL of acetonitrile in order to denature and precipitate the enzyme and, at the same time, to liberate the ligands. The mixture was centrifuged at 21000 g for 10 min in order to separate the precipitate from the supernatant. 5. Analysis step-Said supernatant was analyzed by liquid phase chromatography coupled to a mass spectrometer, also known by the acronym UPLC-MS. The reference sample was also analyzed in the same manner, using the same analytical conditions. The UPLC-MS analysis was carried out in accordance with the protocol described in Example 1. The chromatograms obtained are presented in FIGS. 3A and 3B and represent a signal intensity as a function of retention time in a column. […] Each peak is associated with one of the ligands present in the analyzed extract. The quantity associated with each ligand corresponds to the area of the peak. […] For each ligand, an affinity ratio, RACEi, was calculated as follows: [formula] where: NF is a normalization factor; […] the intensity of the analytical signal for the ligand CEi in the reference sample; ISeq,REF is the intensity of the analytical signal for the reference ligand REF (here, moracenin B) in the reference sample; […] the intensity of the analytical signal for the ligand CEi in the treated solution (the sample to be analyzed after steps 2 to 4 for binding and separation of the ligands) for the detached ligands; ISTB,REF is the intensity of the analytical signal for the reference ligand REF (here, moracenin B) in the treated solution (the sample to be analyzed after steps 2 to 4 for binding and separation of the ligands) for the detached ligands; RA, CEi is the relative affinity ratio (RA), representing an affinity of the ligand CEi for the target. The value of the ratio increases with affinity.

[3] = test system: fungal tyrosinase; experiment: Anti-tyrosinase inhibiting activity, L-tyrosine as substrate, dopachrome at 475 nm; type: biochemical
Description: Morus alba plants were cultivated aeroponically for 8 weeks with a 15/10/30 (N/P/K) culture medium and with an electroconductivity in the range 1.0 and 1.2 mS/cm. The roots were chopped, dried, crushed and macerated in pure ethanol in a ratio of 1 mL of ethanol for 20 mg dry matter in accordance with the protocol described in Example 1. The sample was centrifuged at 21000 g for 10 minutes in order to separate the solid material. The anti-tyrosinase inhibiting activity of the supernatant was measured using L-tyrosine as the substrate. Tyrosinase catalyzes the conversion of L-tyrosine to dopaquinone, which is spontaneously converted into dopachrome. This latter absorbs strongly in the visible range of the electromagnetic spectrum (at 475 nm). The activity of the tyrosinase was measured by following the enzymatic conversion of the colorless L-tyrosine into orange dopachrome with the aid of a microplate reader.
The anti-tyrosinase activity of the supernatant was measured by mixing the following components: 150 μL of the solution of L-tyrosine (1.5 mM) in 50 mM sodium phosphate buffer, pH 6.8; 40 μL of supernatant diluted 2- to 800-fold in ethanol was tested as the inhibitor solution. The enzymatic conversion was initialized by adding a volume of 10 μL of fungal tyrosinase (0.2 mg/mL in a 50 mM sodium phosphate buffer, pH 6.8). The “control” experiment was carried out in the same manner, replacing the supernatant with pure ethanol.
Two root extracts of Morus alba were prepared in accordance with the protocol described in Example 1. The measurement of the anti-tyrosinase inhibiting activity was carried out in accordance with the protocol described in Example 2.1 with 40 μL of each of the two extracts diluted 100-fold or 200-fold in pure ethanol.
The measurement of the anti-tyrosinase inhibiting activity was carried out in accordance with the protocol described in Example 2.1.

Structure (SMILES)	Relative affinity (RA) for hyaluronidase [1]	Relative affinity (RA) for tyrosinase [2]	% inhibition of tyrosinase ([3]; purified compound, 2.5 μM)	% inhibition of tyrosinase ([3]; purified compound, 5 μM)	% inhibition of tyrosinase ([3]; purified compound, 20 μM)	affinity for tyrosinase compared with the other compounds of the extract (in words) ([2]; peak areas of FIG. 3B / relative affinities)	rank of tyrosinase inhibiting activity among the 4 purified compounds (in words) ([3]; 2.5, 5 and 20 μM)	inhibition of tyrosinase ([3]; purified compound, 3.2 mg/L)
CC(C)=CCc1c(O)ccc(C(=O)[C@@H]2CC(C)=C[C@H](c3c(O)cc(O)c4c(=O)c(CC=C(C)C)c(-c5ccc(O)cc5O)oc34)[C@H]2c2ccc(O)cc2O)c1O [Moracenin A, moracenin A]	1.9	5.1	18.9%	27.7%	59.0%	–	–	–
CC(C)=CCc1c(O)ccc(C(=O)C2C(c3ccc(O)cc3O)CC3(C)CC2c2c(O)cc(-c4cc5ccc(O)cc5o4)cc2O3)c1O (stereo not drawn) [Wittiorumin F, wittiorumin F]	2.1	15.5	35.7%	52.9%	75.1%	greater affinity; also recorded: higher affinity	best inhibiting activity	52.9%
CC(C)=CCc1c(-c2ccc(O)cc2O)oc2c([C@H]3C=C(C)C[C@H](C(=O)c4ccc(O)cc4O)[C@@H]3c3ccc(O)cc3O)c(O)cc(O)c2c1=O [Moracenin B, moracenin B]	1.0	1.0	22.6%	33.5%	69.7%	–	–	–
